US4461891A, “2-β-D-Ribofuranosylthiazole-4-carboxamidine compounds” (Brigham Young University, priority 1983, dated 1984)
pIC50: −log10 of the molar value.

What was measured:
HSB = assay: T-cell test with 2'-deoxyguanosine, HSB; assay type: cell-based; conditions: with 2'-deoxyguanosine (10 micromoles), read-out: ED50 (toxic for T-lymphoblasts)
MOLT-4 = assay: T-cell test with 2'-deoxyguanosine, MOLT-4; assay type: cell-based; conditions: with 2'-deoxyguanosine (10 micromoles), read-out: ED50 (toxic for T-lymphoblasts)
CEM T-lymphoblasts = assay: T-cell test with 2'-deoxyguanosine, CEM; assay type: cell-based; conditions: with 2'-deoxyguanosine (10 micromoles), read-out: ED50 (toxic for T-lymphoblasts)
[1] = system: purine nucleoside phosphorylase; assay: purine nucleoside phosphorylase (PNP-4) test: formation of [14C]-hypoxanthine from [14C]-inosine; assay type: biochemical; conditions: human erythrocytes as the source of enzyme; [14C]-inosine substrate
Description: In particular, the compound, in a standard protocol, patterned after that reported in Biomedicine, 33, 39-41(1980), has been shown typically to inhibit the formation of [^14 C]-hypoxanthine from [^14 C]-inosine using human erythrocytes as the source of enzyme. […] Since T-cells play a central role in immune response, use of the compounds of the invention is contemplated for the immunoregulation of autoimmune disease Such as rheumatoid arthritis, systemic lupus erythematosus, and inflammatory bowel disease. The present invention in another preferred aspect therefore relates to compositions containing at least one compound of the invention in treating disease such as autoimmune disease characterized by abnormal immune response in warm blooded animals. According to this aspect of the invention, the properties of 2-β-D-ribofuranosylthiazole-4-carboxamidines are utilized by administering to a warm blooded animal an effective amount of a pharmaceutical composition containing as the active ingredient at least about 0.1 percent by weight, based on the total weight of the composition of at least one such compound of the invention.

T-cells = assay: T-cell test: selective cytotoxicity in the presence of 2'-deoxyguanosine; assay type: cell-based

Q: How did the pIC50 (HSB) turn out when `Cl.N=C(N)c1csc([C@@H]2O[C@H](CO)[C@@H](O)[C@H]2O)n1` [Example 1, 2-β-D-Ribofuranosylthiazole-4-Carboxamidine, hydrochloride] was run?
A: ~5.15

Q: What about the pIC50 (MOLT-4) of the same molecule?
A: ~4.57

Q: And the pIC50 (CEM T-lymphoblasts)?
A: ~4.11

Q: And the “concentration at which total inhibition was achieved” value [1]?
A: less than 300 micromoles

Q: What about the “selective cytotoxicity for T-cells” value (T-cells) of the same molecule?
A: selectively cytotoxic for T-cells
